Test results from patent US20200123127A1, “REMOVAL OF SENESCENCE-ASSOCIATED MACROPHAGES” (EVERON BIOSCIENCES, INC., priority 2016, published 2020).
Like-named read-outs stand apart in the source and are kept apart here.

Key:
[1] = tested on: adult rat dermal fibroblasts (RDF); test: Resazurin viability assay, senescent vs proliferating rat dermal fibroblasts; type: cell-based; settings: Rattus norvegicus, Fibroblast, 72 hour exposure, resazurin
Experimental: (§1) Cytotoxicity of A1.1 analogs against bleomycin-induced senescent human NDFs and rat dermal fibroblasts (RDFs). Activity of analogs was assessed from dose-response curves against irradiation- or bleomycin-induced senescent and proliferating cells to calculate IC50s (uM). The fold difference of proliferating versus senescent cell IC50s was used to assess the level of specific anti-senescent activity of the compounds.
(§2) For generation senescent human neonatal dermal fibroblasts (NDFs) and adult rat dermal fibroblasts (RDFs), cells are treated at ˜10 ug/ml bleomycin for 3 days (for bleomycin-induced senescence) or irradiated once at 20 Gy using a gamma irradiator (Cs source), followed by at least 7 day recovery in fresh medium for induction of senescence. Senescent and non-senescent (proliferating) cells for each cell line are plated into 384-w plate, followed by 72 hour exposure to a dose titration of compounds. Viability measurements are estimated using the resazurin viability assay. Using GraphPad Prism 5, the IC50 values are calculated from the non-linear regression of log-transformed compound concentrations versus dose-response normalized to background and non-treated controls.

[2] = tested on: RWPE-1 normal prostate epithelial cells; test: dnPTEN-induced senescence model in RWPE-1 cells (SA-beta-Gal and methylene blue staining); type: cell-based; settings: 10 uM for 72 hours
Experimental: FIG. 3. Activity of A1.1 and analog A1.12 in a model of dnPTEN-induced senescence in RWPE-1 normal prostate epithelial cells. A population of transduced RWPE-1 cells containing doxycycline-inducible dnPTEN was senesced via 1 ug/ml doxycycline for 7 days. Cells which bypass senescence continued to proliferate to form a confluent monolayer. The mixed population of senescent and proliferating cells was treated with A1.1 and A1.12 at 10 uM for 72 hours. SA-beta-Gal staining was used to monitor the amount of senescent cells of treatment groups compared to non-treated control. In addition, methylene blue was used to quantitate overall cell mass, which was comprised mostly of the non-senescent, proliferating cells. Treatment with the anti-senescent compounds led to a substantial decrease in SA-beta-Gal staining, while the amount of methylene blue staining was less affected.
Senescent cells are strongly associated with benign prostate hyperplasia (BPH) and the development of prostate cancer [Vital, P. et al. (2014) The Senescence-Associated Secretory Phenotype Promotes Benign Prostatic Hyperplasia. Am J Pathol, 184(3): 721-731; Burton, D. et al. (2013). Androgen Deprivation-Induced Senescence Promoted Outgrowth of Anderogen-Refractory Protstate Cancer Cells. PLOS One, 8(6):e68003]. […] We sought to evaluate the efficacy of our compounds in a model of RWPE-1 normal prostate epithelial cells transduced with a construct for inducible loss of PTEN function [doxycycline-inducible expression of a dominant-negative PTEN (dnPTEN) mutant]. In the presence of doxycycline, a fraction of the population of transduced cells became senescent, while cells bypassing senescence continued to grow until a confluent monolayer was formed.

[3] = tested on: human neonatal dermal fibroblasts (NDF); test: Resazurin viability assay, senescent vs proliferating/quiescent human neonatal dermal fibroblasts; type: cell-based; settings: Homo sapiens, Fibroblast, 72 h, 72 hour exposure, resazurin
Experimental: FIG. 2. Compound A1.1 selectively kills senescent human neonatal dermal fibroblasts (NDF) cells in a dose- and time-dependent manner. (FIG. 2A) Normal proliferating and quiescent NDF cells, and the cells made senescent via exposure to genotoxic agents (doxorubicin, bleomycin and gamma-irradiation) were incubated with increasing concentrations of A1.1. At 72 hours post-treatment cell viability was measured via resazurin viability assay. (FIG. 2B) Compound A1.1 selectively kills senescent NDF cells in time-dependent manner discriminating between acute genotoxic stress and senescence. Acutely damaged NDF cells were irradiated with 4 Gy gamma-irradiation 24 hours before A1.1 treatment. Senescent NDF cells were treated with bleomycin or irradiated with 15 Gy and incubated for 14 days to induce senescence before treatment with A1.1. Proliferating acutely damaged and senescent NDF cell were treated with 1.875-30 μM A1.1 and viable cells were measured at 72 hours after treatment. Average and standard deviation are shown.
Normal proliferating and quiescent NDF cells, and the cells made senescent via exposure to genotoxic agents (doxorubicin, bleomycin and gamma-irradiation) were incubated with increasing concentrations of A1.1. At 72 hours post-treatment cell viability was measured via resazurin viability assay.
A1.1 selectively kills senescent human neonatal dermal fibroblasts (NDF) cells in time-dependent manner discriminating between acute genotoxic stress and senescence ([…]). Acutely damaged NDF cells were irradiated with 4 Gy gamma-irradiation 24 hours before A1.1 treatment. Senescent NDF cells were treated with bleomycin or irradiated with 15 Gy and incubated for 14 days to induce senescence before treatment with A1.1.
as §1, §2

[4] = tested on: p16(Ink4a) in mLF and mVAT fibroblasts; test: Modulation of p16(Ink4a) in mouse lung and visceral adipose tissue-derived fibroblasts; type: cell-based; settings: for Modulation of p16(Ink4a): mLF and mVAT Senescent: 20Gy irradiation for senescence induction; for Modulation of p16(Ink4a): mLF and mVAT Proliferating: without irradiation
Description: We next sought to determine whether immunomodulatory agents, and other small molecules, were capable of selectively modulating p16(Ink4a) expression in SAMs by comparing their effects on p16 expression in SAMs to that of mouse lung fibroblasts (mLF) and mouse visceral adipose tissue-derived fibroblasts (mVAT). […] Immunomodulatory agents cause little to no change in p16 expression in fibroblasts. For example, mouse fibroblasts are reported to respond to LPS and IL-4 (expressing TLR4 and IL-4R, respectively), yet these agents are unable to modulate p16 in fibroblasts.

[5] = tested on: chronologically aging mice; test: Survival and frailty index of chronologically aging mice; type: in vivo, mouse
Experimental: FIG. 11. OT-82 effects on survival and frailty index of old mice. (A) Male and female mice were treated with OT-82 or with vehicle alone as a negative control. Survival was measured over the course of six treatments.
FIG. 12. Effects of asenins TA-3899 and TA-4812 on survival and frailty index of old mice. Results are provided on a background of FI of mice of the similar age, aged normally without any treatments (black color). Difference between FI of males receiving 3899 and intact mice is statistically significant (p=0.02).
Frailty Index (FI) was determined for individual mice as described previously (Antoch et al. Aging. 2017; 9: 1-12) using a 26 week-old group as a “young mouse” reference. For each mouse, various parameters were measured. These parameters include non-invasive measurements, including age, body weight, grip strength, diastolic blood pressure, and tail blood flow. Additional blood chemistry measurements were also determined, including white blood cell count, neutrophil count, neutrophil percentage, lymphocyte percentage, monocyte percentage, eosinophil percentage, red blood cell count, hemoglobin, hematocrit, mean corpuscular volume, mean corpuscular hemoglobin, mean corpuscular hemoglobin concentration, platelet count, and mean platelet volume. For each parameter mean value and standard deviation were calculated. Animals differing by more than one standard deviation (STDEV) from mean value in any single parameter were excluded from the reference group. Values for each measured parameter were compared with corresponding values for the reference group and assigned a score. The number of deficits an individual mouse expressed was calculated as a ratio of total number of parameters measured and this value is referred to as the frailty index.
Asenins TA-3899 and TA-4812 were evaluated for their effects on survival and frailty index in a model of chronologic aging mice. Treatment lasted for 20 weeks (weeks 77-97 of age). […] Frailty index of males was measured at week 109.

[6] = tested on: p16(Ink4a) expression in SAMs; test: p16(Ink4a) promoter-dependent luciferase activity in alginate bead-elicited macrophages (SAMs) ex vivo; type: cell-based, mouse; settings: for IL-4-dependent increase in luciferase activity / p16(Ink4a) expression: IL-4 10 ng/mL, 72 hour
Experimental: FIG. 7. Immunomodulatory regulation of p16(Ink4a) and SAβG in macrophages. Peritoneal lavage cells elicited by alginate-encapsulated SCs from p16^Ink4a/Luc mice were treated ex vivo with immunomodulatory agents for 72 hours. A) p16 promoter-dependent luciferase activity (black bars) and […] activity (via 4-MUG hydrolysis) (gray bars) were measured following treatment with M1- and M2-polarizing stimuli: LPS at 1 ng/mL, IFN-γ at 10 ng/mL, LPS/IFN-γ co-treatment, Poly(I:C) at 10 μg/mL, IFN-α at 100 U/mL, IL-4 at 20 ng/mL, IL-13 at 10 ng/ml, and IL-4/IL-13 co-treatment. Results are shown as the mean±standard deviation for at least 3 independent experiments, with statistical significance between treated compared to non-treated samples depicted. B) Dose-dependent response of JAK1/2 inhibitor Ruxolitinib on luciferase activity in elicited macrophages in the presence (gray bars) or absence (black bars) of IL-4 (10 ng/mL) stimulation. Enzyme activities are expressed as the percent activity relative to non-treated (NT) controls per cell. Statistical significance between IL-4 stimulated and non-stimulated cells at each concentration of ruxolitinib is shown.
(§3) FIG. 8. Immunomodulatory regulation of p16(Ink4a) and SAβG in macrophages. Peritoneal lavage cells elicited by alginate-encapsulated SCs from p16^Ink4a/Luc mice were treated ex vivo with immunomodulatory agents for up to 72 hours. (A) mRNA expression of p16(Ink4a) and β-galactosidase (Glb1) in macrophages (relative to B2m expression) with or without LPS stimulation for 72 hours analyzed via qRT-PCR, normalized to non-treated controls. (B) Microphotograph of SAβG-stained adherence-selected macrophages with or without stimulation with LPS (1 ng/mL) for 72 hours (10× objective). (C&D) Kinetics of p16(Ink4a) promoter-dependent luciferase activity per cell with or without LPS stimulation (C) or IL-4 stimulation (D), normalized to activity from non-treated cells at time zero. Results are shown as the mean±standard deviation for at least 3 experiments. Statistical significance with respect to non-treated control at time zero is indicated. (E) Luciferase activity and (3-galactosidase activity (via 4-MUG hydrolysis) from proteose peptone-elicited lavage cells following stimulation with IL-4 (20 ng/mL) for 72 hours, normalized to non-treated controls. (F) Viability following 72 hour dose-response to JAK1/2 inhibitor Ruxolitinib in the presence or absence of IL-4 (10 ng/mL) stimulation, measured by CyQuant Direct DNA-based viability assay. Viability normalized to respective controls lacking Ruxolitinib. (G&H) Dose-response of STAT6 inhibitor AS1517499 against luciferase activity (G) and viability via CyQuant Direct assay (H) following 72 hour treatment in the presence and absence of IL-4 (10 ng/mL). Results normalized to respective controls (with or without IL-4) lacking STAT6 inhibitor. Statistical significance is calculated with respect to the difference between IL-4 stimulated and non-stimulated cells at each concentration of STAT6 inhibitor. (I) Relative luciferase activity per cell following repolarization with M1- and M2-inducing agents. Macrophages were left non-treated (NT) or treated with either LPS (1 ng/ml) or IL-4 (20 ng/ml) for 72 hours (days 1-3), as indicated. For each treatment set, samples were collected at 72 hours (no further treatment; days 4-6=x). Alternatively, cells were washed and placed in fresh medium (−), medium containing LPS (1 ng/mL) and IFN-γ (10 ng/mL), or medium containing IL-4 (20 ng/mL) and IL-13 (10 ng/mL) and incubated for an additional 72 hours prior to sample collection (as indicated for days 4-6). Luciferase activity is expressed as the percent activity per cell relative to non-treated (NT) controls after the first 72 hours.
Luciferase activity of cell lysates was accessed using Bright-Glo™ Luciferase Assay System (Promega; Madison, Wis.) according to manufacturer's instructions with minor modifications. […]

SAMs = test: SAM viability (CyQuant Direct / resazurin); type: cell-based, mouse; settings: 72 hour; presence or absence of IL-4 10 ng/mL
Experimental: as §3
FIG. 10. Elevated p16(Ink4a) and β-galactosidase is regulated by immunomodulatory agents in macrophages, but not in mesenchymal SCs. Primary cultures of adipose-derived mesenchymal stromal cells (AdMSC) isolated from p16^Ink4a/Luc mice were irradiated (20 Gy) and cultured for 10 days for senescence induction. Mock irradiated cells were used as a proliferating cell control. Response of senescent and proliferating AdMSCs to immunomodulatory agents were compared to that of peritoneal lavage cells elicited by our alginate bead model. A-D) Dose-response curves of LPS (top panels: […]) and Poly(I:C) (bottom panels: C&D) on p16(Ink4a) promoter-dependent luciferase activity (left panels: A&C) and beta-galactosidase activity measured via 4-MUG hydrolysis (right panels: B&D) after 72 hr treatment. […]
FIG. 13. […] SAM viability was determined using the resazurin cell viability assay (Res). […]

CCNC(=O)c1sc(SCc2ccccc2)c2c1CC(c1ccc(OC)cc1)C/C2=N\O (stereo not drawn) [Example A1.12]
IC50 ([1]; proliferating RDF, read-out: IC50 RDFprolif): < 10 µM
IC50 ([1]; senescent RDF, bleomycin-induced, read-out: IC50 RDFsen.bleo): < 5 µM
proliferating cells / overall cell mass (methylene blue staining) [2]: little effect against proliferating cells
senescent cells (number of SA-β-Gal-positive cells) ([2]; dnPTEN-induced senescence): selective elimination of senescent cells
IC50 ([3]; proliferating NDF, read-out: IC50 NDFprolif): < 10 µM
IC50 ([3]; senescent NDF, bleomycin-induced, read-out: IC50 NDFsen.bleo): < 5 µM

CCOC(=O)c1sc(SCc2ccccc2)c2c1CN(c1ccc(OC)cc1)C/C2=N\O [Example A1.11, Ethyl 1-(benzylthio)-7-(hydroxyimino)-5-(4-methoxyphenyl)-4,5,6,7-tetrahydro-thieno[3,4-c]pyridine-3-carboxylate]
Modulation of p16(Ink4a): mLF and mVAT Senescent [4]: no change
Modulation of p16(Ink4a): mLF and mVAT Proliferating [4]: no change
survival rates vs control groups ([5]; OT-82: after 6 courses, 111 weeks of age, asenins: treated weeks 77-97, at 112 weeks of age): no statistical significance
FI of males compared to intact animals ([5]; treatment weeks 77-97 of age, measured at week 109): statistically significant decrease
Modulation of p16(Ink4a): SAMs ([6]; SAMs from NDF alginate beads, dose-response testing): decrease

NC(=O)c1cnc(NCCc2ccc(O)c(Cl)c2)nc1NCc1ccccc1 [AS1517499, reference compound]
viability of macrophages (CyQuant Direct) (SAMs): without affecting viability
Modulation of p16(Ink4a): mLF and mVAT Senescent [4]: no change
Modulation of p16(Ink4a): mLF and mVAT Proliferating [4]: no change
IL-4-dependent increase in luciferase activity / p16(Ink4a) expression [6]: abrogated

N#CCNC(=O)c1ccc(-c2ccnc(Nc3ccc(N4CCOCC4)cc3)n2)cc1 [CYT387, momelotinib, reference compound]
Modulation of p16(Ink4a): mLF and mVAT Senescent [4]: no change
Modulation of p16(Ink4a): mLF and mVAT Proliferating [4]: no change
IL-4-dependent increase in luciferase activity / p16(Ink4a) expression [6]: abrogates
